Laboratory results as given in patent US8993782B2, “Cis-alkoxyspirocyclic biphenyl-substituted tetramic acid derivatives” (Bayer CropScience AG, priority 2006, dated 2015).

What was measured:
Format in all cases: in vivo
[1] = tested on: Myzus persicae; experiment: Myzus persicae test, spray, activity boost by ammonium salt and penetrant (Example 2); details: 0.8 ppm active compound
Protocol: Activity Boost Through Ammonium/Phosphonium Salts in Combination with Penetrants
(§1) Solvent: 7 parts by weight of dimethylformamide
(§2) Emulsifier: 2 parts by weight of alkylaryl polyglycol ether
To produce a suitable preparation of active compound, 1 part by weight of active compound is mixed with the stated amounts of solvent and emulsifier, and the concentrate is diluted with water to the desired concentration. For application with ammonium salts or phosphonium salts and penetrants (rapeseed oil methyl ester 500 EW) these are added in each case in a concentration of 1000 ppm to the spray liquor.
Bell pepper plants (Capsicum annuum) which are heavily infested by the green peach aphid (Myzus persicae) are treated with the active compound preparation of the desired concentration by spraying to runoff point. After the desired period of time, the kill in % is determined. 100% means that all animals have been killed; 0% means that none of the animals have been killed.

[2] = tested on: Aphis gossypii; experiment: Aphis gossypii test, spray, ammonium salt and penetrant (Example 3); details: 20 ppm active compound
Protocol: Aphis gossypii Test Solvent: 7 parts by weight of dimethylformamide Emulsifier: 2 parts by weight of alkylaryl polyglycol ether To produce a suitable preparation of active compound, 1 part by weight of active compound is mixed with the stated amounts of solvent and emulsifier, and the concentrate is diluted with emulsifier-containing water to the desired concentration. For application with ammonium salts or phosphonium salts and penetrant (rapeseed oil methyl ester 500 EW) these are added in each case in a concentration of 1000 ppm (a.i.) to the spray liquor. Cotton plants (Gossypium hirsutum) which are heavily infested by the cotton aphid (Aphis gossypii) are treated with the active compound preparation of the desired concentration by spraying to runoff point. After the desired period of time, the kill in % is determined. 100% means that all aphids have been killed; 0% means that none of the aphids have been killed.

[3] = tested on: Aphis gossypii; experiment: Aphis gossypii test, spray, with/without ammonium salt (Example 1); details: 20 ppm active compound, cotton plants sprayed to runoff
Protocol: as §1, §2
To produce a suitable preparation of active compound, 1 part by weight of active compound is mixed with the stated amounts of solvent and emulsifier, and the concentrate is diluted with emulsifier-containing water to the desired concentration. For application with ammonium salts or phosphonium salts these are added in a concentration of 1000 ppm to the spray liquor.
Cotton plants (Gossypium hirsutum) which are severely infested with cotton aphids (Aphis gossypii) are treated by spraying to runoff point with the preparation of the active substance at the desired concentration.
After the desired period of time, the kill in % is determined. 100% means that all aphids have been killed; 0% means that none of the aphids have been killed.

Structure (SMILES)	Kill rate/% after 6 days ([1]; +AS (1000 ppm)) [%]	Kill rate/% after 6 days ([1]; +RME (1000 ppm)) [%]	Kill rate/% after 6 days ([1]; +RME + AS (1000 ppm each)) [%]	Kill rate/% after 6 days ([1]; bell pepper plants sprayed to runoff, no additive) [%]	Kill rate/% after 6 days ([2]; +AS (1000 ppm)) [%]	Kill rate/% after 6 days ([2]; +RME (1000 ppm)) [%]	Kill rate/% after 6 days ([2]; +RME + AS (1000 ppm each)) [%]	Kill rate/% after 6 days ([2]; cotton plants sprayed to runoff, no additive) [%]	Kill rate/% after 6 days ([3]; +AS (1000 ppm)) [%]	Kill rate/% after 6 days ([3]; no additive) [%]
CO[C@H]1CC[C@]2(CC1)NC(=O)C(c1cc(-c3ccc(F)cc3)ccc1C)=C2O [I-a-1]	0	30	70	10	15	70	80	5		
COC1CCC2(CC1)NC(=O)C(c1c(C)ccc(-c3ccc(F)cc3)c1C)=C2O (stereo not shown) [I-a-2]									25	15
